# Tested on: not given
# Experiment: not given
# Conditions: not given
row,Structure (SMILES),melting point
1,COc1cc2c(c(OC)c1C)N=C(NC(=O)c1cccnc1C)N1CCN=C21.Cl [Example 2-78],230 °C (dec.)
2,Cc1cccc2c1N=C(NC(=O)c1cccnc1)N1CCN=C21.Cl [Example 2-108],> 290 °C
3,Cc1cccc2c1N=C(NC(=O)c1ccc3[nH]cnc3c1)N1CCN=C21.Cl [Example 2-110],> 290 °C
4,COc1cccc2c1N=C(NC(=O)c1cc3cccnc3nc1C(F)(F)F)N1CCN=C21.Cl [Example 2-129],225 °C (dec.)
5,Cc1cc(C(=O)NC2=Nc3ccccc3C3=NCCN23)cnc1N.Cl [Example 2-160],311 °C (dec.)
6,Cl.O=C(NC1=Nc2ccccc2C2=NCCN12)c1cnc2[nH]cnc2c1 [Example 2-173],287 °C (dec.)
7,Cc1nc2ncccc2cc1C(=O)NC1=Nc2ccccc2C2=NCCN12.Cl [Example 2-175],270 °C (dec.)
8,Cl.O=C(NC1=Nc2ccccc2C2=NCCN12)c1sccc1Cl [Example 2-181],298 °C (dec.)
9,Cl.O=C(NC1=Nc2ccccc2C2=NCCN12)c1c[nH]cn1 [Example 2-194],309 to 310 °C
10,Cl.O=C(NC1=Nc2cc(OCCO)ccc2C2=NCCN12)c1cccnc1 [Example 2-198],249 °C (dec.)
11,COc1c(C)cc(C(=O)NC2=Nc3ccccc3C3=NCCN23)cc1C.Cl [Example 2-221],288 °C (dec.)
12,O=C(NC1=Nc2ccccc2C2=NCCN12)c1ccc(Cl)cc1.O=C(O)C(F)(F)F [Example 2-230],243 to 245 °C
13,CS(=O)(=O)c1ccc(C(=O)NC2=Nc3ccccc3C3=NCCN23)cc1.Cl [Example 2-246],320 °C (dec.)
14,O=C(NC1=Nc2ccccc2C2=NCCN12)c1cccc([N+](=O)[O-])c1.O=C(O)C(F)(F)F [Example 2-253],238 to 239 °C
15,O=C(NC1=Nc2ccccc2C2=NCCN12)c1ccc([N+](=O)[O-])cc1.O=C(O)C(F)(F)F [Example 2-255],265 °C (dec.)
16,CN(C=O)c1ccc(C(=O)NC2=Nc3ccccc3C3=NCCN23)cc1.Cl [Example 2-264],304 °C (dec.)
17,Cl.O=C(NC1=Nc2ccccc2C2=NCCN12)c1ccc(-n2ccnc2)cc1 [Example 2-269],324 °C (dec.)
18,CCOC(=O)c1cc(C(=O)NC2=Nc3ccccc3C3=NCCN23)cc(C(=O)OCC)c1.Cl [Example 2-275],282 °C
19,O=C(NC1=Nc2ccccc2C2=NCCN12)c1ccccn1.O=C(O)C(F)(F)F [Example 2-277],206 °C (dec.)
20,O=C(NC1=Nc2ccccc2C2=NCCN12)c1cnccn1.O=C(O)C(F)(F)F [Example 2-293],234 °C (dec.)
21,Cc1cnc(C(=O)NC2=Nc3ccccc3C3=NCCN23)cn1.O=C(O)C(F)(F)F [Example 2-295],231 °C (dec.)
22,Cl.O=C(NC1=Nc2ccccc2C2=NCCN12)c1csc([N+](=O)[O-])c1 [Example 2-306],296 °C (dec.)

# Next, values leading:
row,melting point,Structure (SMILES)
1,280 °C (dec.),COc1cc2c(c(OC)c1C)N=C(NC(=O)c1ccc3[nH]cnc3c1)N1CCN=C21.Cl [Example 2-82]
2,309 °C,Cl.O=C(NC1=Nc2ccc(Cl)cc2C2=NCCN12)c1cccnc1 [Example 2-85]
3,316 °C,Cl.O=C(NC1=Nc2ccc(Br)cc2C2=NCCN12)c1cccnc1 [Example 2-88]
4,275 to 277 °C,C=Cc1ccc2c(c1)C1=NCCN1C(NC(=O)c1cccnc1)=N2.Cl [Example 2-96]
5,> 300 °C,Cl.O=C(NC1=Nc2c(F)cccc2C2=NCCN12)c1ccc2[nH]cnc2c1 [Example 2-102]
6,270 °C,Cl.O=C(NC1=Nc2c(cccc2C(F)(F)F)C2=NCCN12)c1ccc2[nH]cnc2c1 [Example 2-113]
7,237 °C (dec.),COc1cccc2c1N=C(NC(=O)c1cccnc1)N1CCN=C21.Cl [Example 2-115]
8,266 °C (dec.),COc1cccc2c1N=C(NC(=O)c1cccnc1Cl)N1CCN=C21.Cl [Example 2-119]
9,238 °C,COc1cccc2c1N=C(NC(=O)c1ccc3[nH]cnc3c1)N1CCN=C21.Cl [Example 2-125]
10,225 °C (dec.),COc1cccc2c1N=C(NC(=O)c1cc3cccnc3nc1C)N1CCN=C21.Cl [Example 2-127]
11,277 °C (dec.),Cc1ncccc1C(=O)NC1=Nc2ccccc2C2=NCCN12.Cl [Example 2-132]
12,291 °C (dec.),Cc1ccncc1C(=O)NC1=Nc2ccccc2C2=NCCN12.Cl [Example 2-137]
13,296 to 297 °C,Cl.O=C(NC1=Nc2ccccc2C2=NCCN12)c1cncc(O)c1 [Example 2-139]
14,272 °C (dec.),COc1cncc(C(=O)NC2=Nc3ccccc3C3=NCCN23)c1.Cl [Example 2-141]
15,310 °C (dec.),Cc1ccc(C(=O)NC2=Nc3ccccc3C3=NCCN23)cn1.Cl [Example 2-148]
16,290 °C (dec.),Cl.Nc1ccc(C(=O)NC2=Nc3ccccc3C3=NCCN23)cn1 [Example 2-150]
17,312 °C (dec.),CC(=O)Nc1ccc(C(=O)NC2=Nc3ccccc3C3=NCCN23)cn1.Cl [Example 2-152]
18,300 °C (dec.),CNc1ccc(C(=O)NC2=Nc3ccccc3C3=NCCN23)cn1.Cl [Example 2-154]

row,melting point,Structure (SMILES)
1,289 °C (dec.),Cc1nc(N)ccc1C(=O)NC1=Nc2ccccc2C2=NCCN12.Cl [Example 2-158]
2,328 °C (dec.),Cc1nc2ccccn2c1C(=O)NC1=Nc2ccccc2C2=NCCN12.Cl [Example 2-171]
3,297 °C (dec.),Cl.O=C(NC1=Nc2ccccc2C2=NCCN12)c1ccsc1 [Example 2-184]
4,271 to 272 °C,CCn1nc(C)cc1C(=O)NC1=Nc2ccccc2C2=NCCN12.Cl [Example 2-192]
5,229 °C (dec.),Cl.O=C(NC1=Nc2cc(OCCOCCO)ccc2C2=NCCN12)c1cccnc1 [Example 2-202]
6,227 °C,Cl.O=C(NC1=Nc2cc(OCC(=O)N3CCOCC3)ccc2C2=NCCN12)c1cccnc1 [Example 2-208]
7,313 °C (dec.),Cc1cc(C(=O)NC2=Nc3ccccc3C3=NCCN23)cc(C)c1[N+](=O)[O-].Cl [Example 2-223]
8,321 °C (dec.),COc1cc(C(=O)NC2=Nc3ccccc3C3=NCCN23)cc(OC)c1C.Cl [Example 2-242]
9,292 °C (dec.),CSc1ccc(C(=O)NC2=Nc3ccccc3C3=NCCN23)cc1.Cl [Example 2-244]
10,308 °C (dec.),Cl.NS(=O)(=O)c1ccc(C(=O)NC2=Nc3ccccc3C3=NCCN23)cc1 [Example 2-248]
11,300 °C (dec.),Cl.NS(=O)(=O)c1ccc(C(=O)NC2=Nc3ccccc3C3=NCCN23)c(Cl)c1 [Example 2-250]
12,266 °C (dec.),CN(C)c1cccc(C(=O)NC2=Nc3ccccc3C3=NCCN23)c1.Cl [Example 2-259]
13,309 °C (dec.),Cl.O=C(NC1=Nc2ccccc2C2=NCCN12)c1ccc(-n2cccc2)cc1 [Example 2-267]
14,319 °C (dec.),Cl.O=C(NC1=Nc2ccccc2C2=NCCN12)c1ccc(-n2cccn2)cc1 [Example 2-271]
15,264 °C (dec.),Cl.Cn1cccc1C(=O)NC1=Nc2ccccc2C2=NCCN12 [Example 2-297]
16,300 °C (dec.),Cl.O=C(NC1=Nc2ccccc2C2=NCCN12)c1ccc([N+](=O)[O-])s1 [Example 2-304]
17,310 °C (dec.),Cl.O=C(NC1=Nc2ccccc2C2=NCCN12)c1csc(-c2cccnc2)n1 [Example 2-320]
18,335 °C (dec.),Cl.O=C(NC1=Nc2ccccc2C2=NCCN12)c1csc(-c2ccncc2)n1 [Example 2-322]

# Biological target: T1, Recombinant human PI3Kγ (full length human PI3K p110γ) (Homo sapiens, UniProt P48736)
# T1 construct: full length human PI3K p110γ fused with a His6-tag at the C-terminus; His6 (C); purchased ALEXIS BIOCHEMICALS #201-055-C010; host or cells: S. frugiperda 9 insect cells
# Experiment: Kinase assay of PI3Kγ (solid-phase lipid kinase assay)
# Type: biochemical
# Conditions: Table 1, isozyme not given; read-out: in vitro
# Text: [Determination of IC50 Values of Compounds in Kinase Assay of PI3Kγ]
# Chemicals and Assay Materials
# LABORATORIES (Toronto, Canada). Recombinant human PI3Kγ (full length human PI3K p110γ fused with a His6-tag at the C-terminus expressed in S. frugiperda 9 insect cells) was obtained from ALEXIS BIOCHEMICALS (#201-055-C010; San Diego, Calif.). […] BIOTECH (Buckinghamshire, UK) and ROCHE DIAGNOSTICS (Mannheim, Germany), respectively. Scintillation cocktails and MicroScint PS™ were purchased from PACKARD (Meriden, Conn.). Maxisorp™ plates were purchased from NALGE NUNC INTERNATIONAL K.K. (Tokyo, Japan). All other chemicals not further specified were from WAKO PURE CHEMICALS (Osaka, Japan).
# Solid-Phase Lipid Kinase Assay
# The plates were subsequently air-dried by incubation for at least 2 hours in a fume hood. The reaction was set up by mixing 25 μl/well of assay buffer 2× (100 mM MOPSO/NaOH, 0.2 M NaCl, pH 7.0, 8 mM MgCl2, 2 mg/ml BSA (fatty acid-free)) and 50 ng/well PI3Kγ in the lipid pre-coated plate and 10× test compounds were added in 2% DMSO. The reaction was started by adding 20 μl/well of ATP mix (final 10 μM ATP; 0.05 μCi/well [γ^33P]ATP). After incubation at RT for 2 hours, the reaction was terminated by adding 50 μl/well stop solution (50 mM EDTA, pH 8.0). The plate was then washed twice with Tris-buffered saline (TBS, pH 7.4). MicroScint PS™ (PACKARD) scintillation mix was added at 100 μl/well, and radioactivity was counted by using a TopCount™ (PACKARD) scintillation counter.
# The inhibition percent at each concentration of compound was calculated, and IC50 values were determined from the inhibition of curve.
# T1 sequence (P48736 whole entry, the tested form may be a part): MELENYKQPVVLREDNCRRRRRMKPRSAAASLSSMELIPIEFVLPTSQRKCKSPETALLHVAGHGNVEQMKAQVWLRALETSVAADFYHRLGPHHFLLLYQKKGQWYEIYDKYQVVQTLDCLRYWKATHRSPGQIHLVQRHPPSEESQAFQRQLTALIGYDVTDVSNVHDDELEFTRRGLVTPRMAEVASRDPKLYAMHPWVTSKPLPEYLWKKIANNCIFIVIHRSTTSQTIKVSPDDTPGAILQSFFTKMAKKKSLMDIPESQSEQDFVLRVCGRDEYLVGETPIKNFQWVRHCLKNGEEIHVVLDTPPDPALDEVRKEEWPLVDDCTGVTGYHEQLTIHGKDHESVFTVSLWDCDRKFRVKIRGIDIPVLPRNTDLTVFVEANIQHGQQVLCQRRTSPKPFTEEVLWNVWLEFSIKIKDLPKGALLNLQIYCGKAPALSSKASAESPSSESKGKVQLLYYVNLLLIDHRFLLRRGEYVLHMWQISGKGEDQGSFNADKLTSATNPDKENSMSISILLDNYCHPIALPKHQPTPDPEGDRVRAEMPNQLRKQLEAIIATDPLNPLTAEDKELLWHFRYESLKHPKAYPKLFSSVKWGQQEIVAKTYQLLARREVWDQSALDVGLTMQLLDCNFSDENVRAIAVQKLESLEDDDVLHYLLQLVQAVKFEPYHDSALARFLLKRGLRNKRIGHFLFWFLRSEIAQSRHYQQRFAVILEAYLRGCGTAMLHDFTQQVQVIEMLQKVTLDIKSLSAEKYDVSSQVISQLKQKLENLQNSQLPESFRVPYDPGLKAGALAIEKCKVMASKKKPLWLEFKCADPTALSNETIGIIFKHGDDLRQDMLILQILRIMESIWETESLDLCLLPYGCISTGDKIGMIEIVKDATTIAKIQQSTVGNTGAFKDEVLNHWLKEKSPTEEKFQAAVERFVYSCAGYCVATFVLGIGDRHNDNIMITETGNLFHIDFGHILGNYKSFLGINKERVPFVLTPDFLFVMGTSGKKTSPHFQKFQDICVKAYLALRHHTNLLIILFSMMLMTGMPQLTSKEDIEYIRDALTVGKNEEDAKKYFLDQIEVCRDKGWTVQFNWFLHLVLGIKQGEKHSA
row,IC50 [nM],Structure (SMILES)
1,100 to 500,CCNc1ccc(/C(O)=C/C2=Nc3cc(OC)c(OC)cc3C3=NCCN23)cn1 [Example 1-53]
2,500 to 2000,O/C(=C\C1=Nc2cc(C(F)(F)F)ccc2C2=NCCN12)c1cccnc1 [Example 1-188]

# Same assay, conditions: in vitro PI3K-γ inhibitory activity, class symbols A-D; read-out: in vitro PI3K-gamma
row,IC50 [nM],Structure (SMILES)
1,> 2000,CCC(=O)NC1=Nc2ccccc2C2=NCCN12 [Example 2-327]
2,> 2000,CC(C)(C)OC(=O)N1CCCCC1C(=O)NC1=Nc2ccccc2C2=NCCN12 (centres unmarked) [Example 2-336]
3,> 2000,CC(C)(C)OC(=O)N1CCC(C(=O)NC2=Nc3ccccc3C3=NCCN23)CC1 [Example 2-340]
4,500 to 2000,COc1cc2c(cc1OC)C1=NCCN1C(NC(=O)c1ccccc1)=N2 [Example 2-342]

# Same assay, conditions: in vitro PI3K-γ inhibitory activity, class symbols; read-out: in vitro PI3K-gamma
row,IC50 [nM],Structure (SMILES)
1,100 to 500,COc1cc2c(cc1OC)C1=NCCN1C(NC(=O)c1cccnc1)=N2 [Example 2-53]
